Test results from publication PMC5665883, “Antithrombotic properties of JJ1, a potent and novel thrombin inhibitor” (Scientific Reports, 2017).
Marks after values point to notes of the source that are not given here.

Columns and labels:
Factor IXa = target: T1, Factor IXa (Homo sapiens, UniProt P00740); experiment: Chromogenic substrate assay, Ki (Dixon); type: biochemical
T1 construct: Factor IXa
Procedure: (§1) Chromogenic substrate assays were performed using a Labsystems IEMS (Cergy Pontoise, France) microtiter plate reader. K i values were calculated according to the method of Dixon[65]. In each assay, the compound was tested at a minimum of seven concentrations, in duplicate, to obtain an inhibition curve. The following general procedures were adopted for each assay. In a 96-well microtiter plate, 25 μL of inhibitor solution or buffer was added to 50 μL of substrate. The enzyme solution (25 μL) was added just before the plate was placed in the microtiter plate reader for 1 h at 37 °C. The hydrolysis of the substrate yields p-nitroaniline, which was continuously monitored spectrophotometrically at 405 nm. The maximal initial reaction rates were calculated and expressed as millioptical density per minute.

Factor XIa = target: T2, Factor XIa (Homo sapiens, UniProt P03951); experiment: Chromogenic substrate assay, Ki (Dixon); type: biochemical
T2 construct: Factor XIa
Procedure: as §1

[1] = Organ injury markers (biochemical safety parameters); type: in vivo, C57BL/6 mice; design: BUN: unit not given here
Procedure: The safety of JJ1 is another promising feature. Animal safety markers such as aspartate transaminase (AST) and alanine transaminase (ALT) (markers of hepatic injury) and creatinine and blood urea nitrogen (BUN) (markers of renal injury) were assessed with blood samples obtained at 48 h after JJ1 injection. […] Serum levels of AST, ALT, BUN, and creatinine were measured using commercial assay kits (Pointe Scientific, Linclon Park, MI).

[2] = Ex vivo aPTT clotting time; type: in vivo, C57BL/6 mice; details: mice, i.v., 1 h after administration
Procedure: (§2) The aPTT and PT were determined using a Thrombotimer (Behnk Elektronik, Norderstedt, Germany) in accordance with the manufacturer’s instructions and as previously described. Briefly, citrated normal human plasma (90 μL) was mixed with 10 μL JJ1 and incubated for 1 min at 37 °C. Subsequently, the aPTT assay reagent (100 μL) was added, the plasma sample was incubated for an additional 1 min at 37 °C, 20 mM CaCl2 (100 μL) was added, and the clotting times were recorded. For the PT assays, citrated normal human plasma (90 μL) was mixed with 10 μL JJ1 stock solution and was incubated for 1 min at 37 °C. The PT assay reagent (200 μL), which had been pre-incubated for 10 min at 37 °C, was subsequently added and the clotting time was recorded. The PT results were expressed in seconds and as International Normalized Ratios (INR): INR = (PT sample/PT control)^ISI, where ISI = international sensitivity index. The aPTT results were also expressed in seconds. All experimental protocols (KNUH 2012-01-010) were approved by the Institutional Review Board of Kyungpook National University Hospitals (Daegu, Republic of Korea).
(§3) Male C57BL/6 mice were fasted overnight. Each compound was dissolved in 0.5% DMSO and administered by i.v. injection. One hour after administration, arterial blood samples (0.1 mL) were collected in 3.8% sodium citrate (1:10, v/v) for the ex vivo aPTT and PT determination. The clotting times were determined as described above.

human plasma [3] = experiment: In vitro aPTT clotting time; type: biochemical; details: at the maximum antithrombotic dose
thrombin = target: T3, thrombin (Homo sapiens, UniProt P00734); experiment: Enzyme-based assay of purchased virtual screening molecules, single dose; type: biochemical; details: single concentration of 50 μM
T3 construct: purchased Haematologic Technologies (Essex Junction, VT)
From the text: Prior to the high-throughput virtual screening, we selected the best crystal structure for docking with DOCK 3.6[17] using the selected inhibitors and their physicochemically matched but topologically different decoys. […] Because the earlier enrichment of true positives is more important for high throughput SBVS, we used the value of LogAUC as a metric, selecting 2CF9-H[18] as the best structure. […] Besides, the enrichment at 1% (EF1) was 37.1. The values of LogAUC and EF1 were approximately two-fold higher than the averages (26.1 for LogAUC and 17.1 for EF1) (Figs 1 and S1). Some structures had higher AUC values than that of 2CF9-H, but the value of LogAUC was the highest for 2CF9-H (Fig. S1). The optimization necessitated the calculations of more than 2 million protein and ligand pairs. The high speed of DOCK 3.6 and the in-house Linux cluster system consisting of 128 cores efficiently managed the calculations in three days. Of the candidate molecules having the lowest scores in the high-throughput SBVS, we chose the molecules with desirable geometries and physicochemical properties by a simple manual and visual inspection. […] It is known that the scoring function of virtual screening itself is insufficient to capture such an abnormality. Table S1 and Fig. S2 list the top 40 molecules, which were selected through high-throughput SBVS; we purchased these molecules to measure enzymatic inhibitory activity.

human plasma [4] = experiment: In vitro PT clotting time; type: biochemical; details: at the maximum antithrombotic dose
Ex vivo PT clotting time = type: in vivo, C57BL/6 mice; details: mice, i.v.; for PT: 1 h after administration
Procedure: as §2, §3

human platelets = experiment: In vitro thrombin-induced platelet aggregation; type: cell-based; details: washed human platelets
Procedure: The in vitro platelet aggregation study was performed according to a previously reported method[59],[62]. Washed human platelets were incubated with the indicated concentration of JJ1 in DMSO for 1, 3, 5, or 10 min and subsequently stimulated by thrombin in 0.9% saline solution at 37 °C for 5 min. Platelet aggregation was recorded using an aggregometer (Chronolog, Havertown, PA, USA). For the ex vivo aggregation assay, male mice were fasted overnight and the indicated concentration of JJ1 in DMSO was administered by i.v. injection. After 24 h, PRP (10^9 platelets/mL) in a total volume of 240 μL was incubated at 37 °C for 1.5 min in the aggregometer with continuous stirring at 1000 rpm and subsequently stimulated with thrombin. Platelet aggregation was recorded as described above.

human α-thrombin = target: T4, human α-thrombin (Homo sapiens, UniProt P00734); experiment: Chromogenic substrate assay, Ki (Dixon); type: biochemical
T4 construct: purchased Haematologic Technologies (Essex Junction, VT)

[5] = male C57BL/6 mice, 3.06 μg/mouse, 48 h after injection

T2 sequence (P03951 388-625 limits assumed): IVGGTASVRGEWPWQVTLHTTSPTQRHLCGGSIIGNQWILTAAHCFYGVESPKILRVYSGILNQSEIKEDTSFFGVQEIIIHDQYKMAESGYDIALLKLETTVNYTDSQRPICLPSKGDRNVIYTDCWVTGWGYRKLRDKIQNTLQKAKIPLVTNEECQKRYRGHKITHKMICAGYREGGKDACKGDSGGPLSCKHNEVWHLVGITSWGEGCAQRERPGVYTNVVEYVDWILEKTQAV
T2 sequence (P03951 19-387 limits assumed): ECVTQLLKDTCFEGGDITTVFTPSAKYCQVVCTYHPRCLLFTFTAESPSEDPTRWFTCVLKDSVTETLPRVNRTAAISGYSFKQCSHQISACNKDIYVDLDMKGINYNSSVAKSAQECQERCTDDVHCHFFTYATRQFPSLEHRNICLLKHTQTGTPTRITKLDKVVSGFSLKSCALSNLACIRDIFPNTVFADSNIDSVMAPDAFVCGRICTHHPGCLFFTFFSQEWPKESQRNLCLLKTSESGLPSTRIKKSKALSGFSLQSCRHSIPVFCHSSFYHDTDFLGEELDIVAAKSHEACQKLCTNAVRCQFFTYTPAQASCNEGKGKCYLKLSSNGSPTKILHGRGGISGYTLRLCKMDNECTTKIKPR
T1 sequence (P00740 227-461 limits assumed): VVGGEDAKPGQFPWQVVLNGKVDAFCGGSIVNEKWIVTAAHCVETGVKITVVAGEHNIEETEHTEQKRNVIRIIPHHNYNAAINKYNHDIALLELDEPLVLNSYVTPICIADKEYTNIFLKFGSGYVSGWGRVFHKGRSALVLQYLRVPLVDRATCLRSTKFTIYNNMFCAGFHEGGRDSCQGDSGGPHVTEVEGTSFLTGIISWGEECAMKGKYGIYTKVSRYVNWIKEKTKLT
T1 sequence (P00740 47-191 limits assumed): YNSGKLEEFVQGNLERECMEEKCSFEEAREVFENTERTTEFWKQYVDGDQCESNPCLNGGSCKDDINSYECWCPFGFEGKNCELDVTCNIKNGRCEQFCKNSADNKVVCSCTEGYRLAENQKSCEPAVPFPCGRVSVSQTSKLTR

Question: Which Ki (Factor IXa; Factor IXa) does the source give for `c1ccc2c(NC3CCCC3)nc(Nc3ccncc3)nc2c1` [JJ1] here?
Answer: > 250 µM

Question: And the Selectivity ratio (Factor IXa; K i Factor IXa/K i α-thrombin)?
Answer: >10,000

Question: And the Ki (Factor XIa; Factor XIa)?
Answer: > 250 µM

Question: What about the Selectivity ratio (Factor XIa; K i Factor XIa/K i α-thrombin) of the same molecule?
Answer: >10,000

Question: And the “Plasma levels of AST, ALT, BUN, and creatinine compared to DMSO-treated animals” value ([1]; after 2 days)?
Answer: no significant differences

Question: And the ALT [1, 5]?
Answer: 7.5 ± 0.63 IU/L

Question: What about the AST [1, 5] of the same molecule?
Answer: 15.1 ± 1.29 IU/L

Question: And the BUN [1, 5]?
Answer: 17.1 ± 1.31

Question: What about the Creatinine [1, 5] of the same molecule?
Answer: 0.139 ± 0.012 mg/dL

Question: And the aPTT ([2]; 0.31 μg/mouse)?
Answer: 31.9 ± 0.6 s

Question: What about the aPTT ([2]; 0.61 μg/mouse) of the same molecule?
Answer: 40.1 ± 1.1 s

Question: And the aPTT ([2]; 1.23 μg/mouse)?
Answer: 49.4 ± 1.5 s

Question: What about the aPTT ([2]; 3.06 μg/mouse) of the same molecule?
Answer: 55.8 ± 1.2 s

Question: And the “Prolongation of aPTT” value (human plasma [3])?
Answer: 2.17 fold

Question: And the “Degree of inhibition in the enzyme-based assay” value (thrombin)?
Answer: inhibitory effects

Question: What about the “Prolongation of PT” value (human plasma [4]) of the same molecule?
Answer: 2.22 fold

Question: And the “PT (INR)” value (Ex vivo PT clotting time; 0.31 μg/mouse)?
Answer: 1.08 INR

Question: What about the PT (Ex vivo PT clotting time; 0.31 μg/mouse) of the same molecule?
Answer: 12.4 ± 0.5 s

Question: What about the “PT (INR)” value (Ex vivo PT clotting time; 0.61 μg/mouse) of the same molecule?
Answer: 2.37 INR

Question: And the PT (Ex vivo PT clotting time; 0.61 μg/mouse)?
Answer: 17.2 ± 1.4 s

Question: What about the “PT (INR)” value (Ex vivo PT clotting time; 1.23 μg/mouse) of the same molecule?
Answer: 4.42* INR

Question: What about the PT (Ex vivo PT clotting time; 1.23 μg/mouse) of the same molecule?
Answer: 22.3 ± 0.6 s

Question: What about the “PT (INR)” value (Ex vivo PT clotting time; 3.06 μg/mouse) of the same molecule?
Answer: 6.88* INR

Question: And the PT (Ex vivo PT clotting time; 3.06 μg/mouse)?
Answer: 26.8 ± 0.4 s

Question: What about the “Human platelet aggregation induced by thrombin” value (human platelets) of the same molecule?
Answer: significantly inhibited human platelet aggregation induced by thrombin in a concentration-dependent manner

Question: What about the Selectivity ratio (human α-thrombin; K i enzyme/K i α-thrombin) of the same molecule?
Answer: 1

Question: What about the Ki (human α-thrombin; mean ± SD (n = 5)) of the same molecule?
Answer: 0.019 ± 0.0005 µM
